For one test, the target named is 1b (BK) NS5bΔ21 (Hepatitis C virus genotype 1b (isolate BK) (HCV), UniProt P26663). As to the kind of experiment: HCV polymerase inhibition assay, genotype 1b. It counts as biochemical, HCV genotype 1b (BK). In a few lines: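 NS5bΔ21 (50 nM) in Tris-HCl pH 7.5 with Mg2+/Mn2+, DTT, BSA, 0.5% DMSO, poly(rC) template, GTP at Km and ^33P-GTP; 3-fold compound dilutions. GTP-started reactions stopped with EDTA after 1 h; incorporation read by DEAE filter scintillation counting. IC50 by non-linear regression; 3a enzyme run the same way.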

The target of test [1] is genotype 3a (VRL-69) NS5bΔ21 polymerase (Hepatitis C virus genotype 3a, UniProt Q81258). As to the kind of experiment: HCV polymerase inhibition assay, genotype 3a. It counts as biochemical, HCV genotype 3a (VRL-69). As for the experimental part: HCV polymerase reactions were carried out using a modified method of Howe et al., Antimicrobial Agents and Chemotherapy 2004 48(12): 4813-4821. Reactions contained a final concentration of, 0.5% DMSO, 50 nM, 1b (BK) NS5bΔ21, 20 mM Tris-HCl pH 7.5, 5 mM MgCl2, 5 mM MnCl2, 3 mM DTT, 0.05% BSA, 0.2 U/μL RNasin, 10 μg/mL Poly(rC) template, GTP (at Km) and 0.05 μCi/μL ^33P-GTP in a total reaction volume of 50 μL. Compounds were tested in a three fold dilution series, for example starting from 50 μM. Reactions were initiated with the addition of GTP and terminated after 1 hour with 50 μL ice cold 0.2 M EDTA. Terminated reactions were transferred to DEAE 96-well filter plates, unincorporated nucleotides washed from the filters and 50 μL scintillation fluid added prior to reading on a scintillation counter. Similarly, a genotype 3a (VRL-69) NS5bΔ21 polymerase enzyme assay was conducted using essentially the same method.
The compound concentration that reduced ^33P-GTP incorporation by 50% (IC50) was calculated using non-linear regression.

Test [2] concerns genotype 1b (Con 1) subgenomic replicon cell line. Put plainly: HCV replicon assay, genotype 1b (Renilla luciferase). The class given is cell-based, HCV genotype 1b (Con 1). Conditions: genotype 1b replicon. In a few lines: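 Subgenomic replicon cells expressing Renilla luciferase (1b Con1; 1a and 2a lines by the same method) seeded at 7000 cells/well (5000 for 2a) without G418, exposed to 3-fold compound dilutions for 72 h at 37 °C. Luciferase activity measured; EC50 by non-linear regression.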

Test [3] has as its system subgenomic genotype 1a replicon cell line. As to the kind of experiment: HCV replicon assay, genotype 1a. The class given is cell-based, HCV genotype 1a. The protocol: (§1) A genotype 1b (Con 1) subgenomic replicon cell line based on Blight et al., Science 2000 290: 1972-1974, modified to express a Renilla luciferase reporter gene was used to assess antiviral activity of test compounds. Cell cultures were maintained in a sub-confluent state in DMEM with glutamine, 10% heat-inactivated foetal bovine serum (FBS) and G418 (Geneticin®).
(§2) For assay, cells were seeded at a density of 7000 cells/well into 96 well tissue culture trays in culture media lacking G418. Compounds were tested in a three fold dilution series, for example starting from 50 uM. After 72 hours incubation at 37° C. and 5% CO2, Renilla luciferase activity was quantified via the Promega Renilla Luciferase or Renilla-Glo™ Luciferase Assay Systems (Promega corporation. The same method was employed for replicon assays using subgenomic genotype 1a and 2a replicon cell lines with a seeding cell density of 5000 cells/well for the 2a cell lines.
(§3) The compound concentration that reduced luciferase activity by 50% (EC50) was calculated using non-linear regression.

Test [4] concerns subgenomic genotype 2a replicon cell line. Put plainly: HCV replicon assay, genotype 2a. It counts as cell-based, HCV genotype 2a. As for the experimental part:
as §1, §2, §3

For test [5], the system named is genotype 1b (Con 1) subgenomic replicon cell line. Put plainly: Combination studies in replicon cells (MacSynergy II). The class given is cell-based, HCV genotype 1b (Con 1). The protocol: A genotype 1b (Con 1) subgenomic replicon cell line based on Blight et al., Science 2000 290: 1972-1974, modified to express a Renilla luciferase reporter gene was used to assess synergy of test compounds. Cell cultures were maintained in a sub-confluent state in DMEM with glutamine, 10% heat-inactivated foetal bovine serum (FBS) and G418 (Geneticin®).
For assay, cells were seeded at a density of 7000 cells/well into 96 well tissue culture trays in culture media lacking G418. The compound concentration that reduced luciferase activity by 50% (EC50) was determined independently for each compound and used to set the range of concentrations for the combination experiments. […] The ratio of the 2 compounds tested remained fixed across the titration range. […] After 72 hours incubation at 37° C. and 5% CO2, Renilla luciferase activity was quantified via the Promega Renilla Luciferase Assay System.
Results were analysed and levels of synergy assessed via generation of 3D synergy plots using MacSynergy™ II (Prichard, M. N., K. R. Aseltine, and C. Shipman, Jr. 1993. MacSynergy II. Version 1.0. User's manual. University of Michigan, Ann Arbor.). […] Compound 175 was selected as a representative example of the compounds of the invention for synergistic studies.
On the technique in general: A replicon is a self-replicating genome or part of one, used to study replication in cells.

Where [6] appears, read: 1b (BK) NS5bΔ21, 33P-GTP incorporation, read-out: 1b polymerase IC50 (range class).
The mark [7] stands for this setting: genotype 1b, read-out: 1b NS5b polymerase IC50.
[8] abbreviates: genotype 3a, read-out: 3a NS5b polymerase IC50.
The mark [9] stands for this setting: Hepatitis C virus, 72 hours, luciferase, read-out: genotype 1b EC50 (range class).
Setting [10] is: Hepatitis C virus, read-out: Replicon 1b EC50.

Molecules are shown by their SMILES. Like-named read-outs stand apart in the source and are kept apart here.

genotype 3a (VRL-69) NS5bΔ21 polymerase, sequence (Q81258 whole entry, looked up, stated change not applied): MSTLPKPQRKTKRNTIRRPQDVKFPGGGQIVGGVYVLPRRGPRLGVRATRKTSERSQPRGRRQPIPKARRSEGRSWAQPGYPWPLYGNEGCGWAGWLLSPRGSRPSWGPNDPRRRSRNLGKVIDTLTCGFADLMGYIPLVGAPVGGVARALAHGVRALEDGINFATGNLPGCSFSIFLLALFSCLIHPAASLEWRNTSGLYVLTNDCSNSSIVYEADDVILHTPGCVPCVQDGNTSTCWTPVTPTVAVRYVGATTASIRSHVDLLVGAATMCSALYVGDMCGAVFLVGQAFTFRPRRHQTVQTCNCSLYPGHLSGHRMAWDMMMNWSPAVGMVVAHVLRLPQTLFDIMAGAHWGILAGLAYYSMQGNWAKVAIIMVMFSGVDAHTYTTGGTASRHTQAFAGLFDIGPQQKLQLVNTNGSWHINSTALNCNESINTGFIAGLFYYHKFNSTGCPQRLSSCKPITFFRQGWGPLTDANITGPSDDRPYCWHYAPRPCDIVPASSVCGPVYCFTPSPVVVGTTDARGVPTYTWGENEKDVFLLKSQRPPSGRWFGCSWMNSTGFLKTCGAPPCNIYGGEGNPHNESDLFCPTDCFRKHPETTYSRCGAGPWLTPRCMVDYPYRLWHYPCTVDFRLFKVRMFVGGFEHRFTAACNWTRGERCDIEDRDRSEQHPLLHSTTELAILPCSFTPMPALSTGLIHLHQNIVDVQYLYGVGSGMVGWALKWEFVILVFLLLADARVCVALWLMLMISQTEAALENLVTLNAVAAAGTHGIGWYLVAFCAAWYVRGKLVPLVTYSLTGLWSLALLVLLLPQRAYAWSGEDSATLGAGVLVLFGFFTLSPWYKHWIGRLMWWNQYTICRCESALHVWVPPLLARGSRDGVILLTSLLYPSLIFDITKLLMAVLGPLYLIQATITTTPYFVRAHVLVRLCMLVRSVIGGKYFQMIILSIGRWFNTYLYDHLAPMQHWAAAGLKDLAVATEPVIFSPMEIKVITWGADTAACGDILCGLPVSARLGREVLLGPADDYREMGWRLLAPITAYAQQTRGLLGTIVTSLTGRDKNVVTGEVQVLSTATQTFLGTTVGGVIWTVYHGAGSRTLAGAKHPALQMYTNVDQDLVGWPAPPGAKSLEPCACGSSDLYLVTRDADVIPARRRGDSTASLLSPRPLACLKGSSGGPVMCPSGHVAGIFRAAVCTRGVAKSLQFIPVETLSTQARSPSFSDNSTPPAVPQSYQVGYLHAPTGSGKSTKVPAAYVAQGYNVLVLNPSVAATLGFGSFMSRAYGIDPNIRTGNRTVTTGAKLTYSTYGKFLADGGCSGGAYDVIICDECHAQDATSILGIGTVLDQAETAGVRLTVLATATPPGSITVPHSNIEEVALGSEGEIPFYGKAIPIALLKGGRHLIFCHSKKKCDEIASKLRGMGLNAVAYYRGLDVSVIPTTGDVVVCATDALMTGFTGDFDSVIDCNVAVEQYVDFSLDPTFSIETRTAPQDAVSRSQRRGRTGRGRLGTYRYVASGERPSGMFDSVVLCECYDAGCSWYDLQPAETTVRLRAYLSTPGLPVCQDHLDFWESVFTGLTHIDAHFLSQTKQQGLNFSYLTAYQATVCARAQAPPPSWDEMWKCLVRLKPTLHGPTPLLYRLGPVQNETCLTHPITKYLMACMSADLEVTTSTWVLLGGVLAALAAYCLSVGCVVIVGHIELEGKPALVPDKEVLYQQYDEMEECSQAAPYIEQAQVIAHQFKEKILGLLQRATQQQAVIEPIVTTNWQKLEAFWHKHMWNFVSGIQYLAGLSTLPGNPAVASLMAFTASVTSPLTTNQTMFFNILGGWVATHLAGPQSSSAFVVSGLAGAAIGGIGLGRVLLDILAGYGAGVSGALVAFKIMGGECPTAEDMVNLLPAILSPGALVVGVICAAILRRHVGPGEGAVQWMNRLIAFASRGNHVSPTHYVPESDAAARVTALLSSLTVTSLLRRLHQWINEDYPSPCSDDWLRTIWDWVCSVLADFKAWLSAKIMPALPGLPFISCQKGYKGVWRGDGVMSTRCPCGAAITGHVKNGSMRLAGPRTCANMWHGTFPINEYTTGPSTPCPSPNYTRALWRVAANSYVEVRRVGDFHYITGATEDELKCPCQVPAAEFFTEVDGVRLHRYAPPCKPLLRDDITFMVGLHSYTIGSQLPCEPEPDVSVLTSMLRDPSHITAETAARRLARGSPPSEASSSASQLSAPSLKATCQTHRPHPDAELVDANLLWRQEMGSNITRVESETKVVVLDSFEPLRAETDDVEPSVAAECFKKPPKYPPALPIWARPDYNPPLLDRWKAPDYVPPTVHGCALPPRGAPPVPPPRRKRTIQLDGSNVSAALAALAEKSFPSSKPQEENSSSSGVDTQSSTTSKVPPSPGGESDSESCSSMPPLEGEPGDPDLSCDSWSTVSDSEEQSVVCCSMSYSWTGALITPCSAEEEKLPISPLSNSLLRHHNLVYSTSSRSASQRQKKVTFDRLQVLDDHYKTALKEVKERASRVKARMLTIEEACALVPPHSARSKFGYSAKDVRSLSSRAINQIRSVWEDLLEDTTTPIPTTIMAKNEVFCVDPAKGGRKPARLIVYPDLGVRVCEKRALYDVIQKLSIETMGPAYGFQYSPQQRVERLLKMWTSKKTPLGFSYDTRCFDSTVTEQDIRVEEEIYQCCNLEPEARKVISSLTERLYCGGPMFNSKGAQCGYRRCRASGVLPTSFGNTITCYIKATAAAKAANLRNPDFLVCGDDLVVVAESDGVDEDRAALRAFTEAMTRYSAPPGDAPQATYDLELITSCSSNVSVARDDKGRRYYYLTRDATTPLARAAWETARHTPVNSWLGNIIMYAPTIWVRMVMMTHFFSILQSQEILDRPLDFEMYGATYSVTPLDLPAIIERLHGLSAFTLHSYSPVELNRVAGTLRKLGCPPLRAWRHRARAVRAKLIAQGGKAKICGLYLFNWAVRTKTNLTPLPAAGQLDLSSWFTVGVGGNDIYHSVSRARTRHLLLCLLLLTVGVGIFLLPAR
1b (BK) NS5bΔ21, sequence (P26663 2420-2989): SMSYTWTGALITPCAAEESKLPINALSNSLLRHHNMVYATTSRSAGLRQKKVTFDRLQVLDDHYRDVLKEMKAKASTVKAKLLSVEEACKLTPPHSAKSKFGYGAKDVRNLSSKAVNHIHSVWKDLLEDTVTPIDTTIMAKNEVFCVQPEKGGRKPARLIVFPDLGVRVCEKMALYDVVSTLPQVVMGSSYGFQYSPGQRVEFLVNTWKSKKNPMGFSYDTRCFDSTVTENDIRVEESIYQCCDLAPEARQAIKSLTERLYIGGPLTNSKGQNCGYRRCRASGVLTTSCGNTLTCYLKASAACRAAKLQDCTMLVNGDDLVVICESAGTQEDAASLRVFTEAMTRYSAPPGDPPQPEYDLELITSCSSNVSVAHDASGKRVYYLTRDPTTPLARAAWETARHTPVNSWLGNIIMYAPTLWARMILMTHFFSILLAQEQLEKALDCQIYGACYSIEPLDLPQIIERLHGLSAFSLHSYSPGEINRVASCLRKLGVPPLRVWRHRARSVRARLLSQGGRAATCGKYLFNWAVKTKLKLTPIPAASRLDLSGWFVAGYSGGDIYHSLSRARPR

A word on the IC50: it is the concentration at which inhibition is half-maximal. By EC50 is commonly meant the concentration at which the effect is half-maximal. `CCN(c1cc2nn(-c3ccc(Cl)cc3)c(C(=O)NC)c2cc1C1CC1)S(C)(=O)=O` [Compound 175]: the IC50 was less than 990 nM at 1b (BK) NS5bΔ21 (setting [6]), 100 nM at 1b (BK) NS5bΔ21 (setting [7]) and 30 nM in test [1] (setting [8]). Besides, the EC50 in test [2] (setting [9]) is less than 990 nM; in test [2] (setting [10]) it was 60 nM; in test [3] (Hepatitis C virus), 260 nM; in test [4] (Hepatitis C virus) it was 80 nM. The “synergy in combination with a nucleoside NS5b inhibitor” value in test [5] (with 4-amino-7-(2-C-methyl-β-D-ribofuranosyl)-pyrrolo[2,1-f][1,2,4]triazine, FIG. 1, 95% confidence intervals) is listed as “statistically significant synergy”. For the same molecule, the “synergy in combination with an NS5a inhibitor” value in test [5] (with BMS-790052, daclatasvir, FIG. 3, 95% confidence intervals) was “statistically significant synergy”. Further, the “synergy in combination with a NS3/4a protease inhibitor” value in test [5] (with VX-950, telaprevir, FIG. 2, 95% confidence intervals) was “statistically significant synergy”.
As to `CNC(=O)c1c2cc(C3CC3)c(N(CCCNC(=O)c3ccccc3)S(C)(=O)=O)cc2nn1-c1ccc(Br)cc1` [Compound 166], the half-maximal inhibitory concentration (IC50) on 1b (BK) NS5bΔ21 (setting [6]) is less than 990 nM; on 1b (BK) NS5bΔ21 (setting [7]), 160 nM; in test [1] (setting [8]) it was 30 nM. For the same molecule, the concentration giving a half-maximal response (EC50) in test [2] (setting [9]) was less than 990 nM; in test [2] (setting [10]), 20 nM; in test [3] (Hepatitis C virus), 20 nM; in test [4] (Hepatitis C virus) it was 340 nM.
For `CNC(=O)c1c2cc(C3CC3)c(N(CCCO)S(C)(=O)=O)cc2nn1-c1ccc(Cl)cc1` [Compound 54, 2-(4-Chlorophenyl-1)-5-cyclopropyl-6-[3-hydroxypropyl(methylsulfonyl)amino]-N-methyl-indazole-3-carboxamide], the IC50 at 1b (BK) NS5bΔ21 (setting [7]) was 360 nM; in test [1] (setting [8]), 20 nM. Also, the half-maximal effective concentration (EC50) in test [2] (read-out: Replicon 1b EC50) stood at 100 nM; in test [3], 300 nM; in test [4] it was 1030 nM.
Regarding `CNC(=O)c1c2cc(C3CC3)c(N(CCCNC(C)=O)S(C)(=O)=O)cc2nn1-c1ccc(Nc2ccc(F)cc2)cc1` [Compound 119], the IC50 on 1b (BK) NS5bΔ21 (setting [6]) was less than 990 nM; at 1b (BK) NS5bΔ21 (setting [7]), 130 nM; in test [1] (setting [8]) it was 30 nM. The EC50 was less than 990 nM in test [2] (setting [9]), 240 nM in test [2] (setting [10]), 1200 nM in test [3] (Hepatitis C virus) and 2700 nM in test [4] (Hepatitis C virus).
Consider `CNC(=O)c1c2cc(C3CC3)c(N(CCCNC(=O)[C@H]3CCC[C@@H]3C(=O)OC)S(C)(=O)=O)cc2nn1-c1ccc(Br)cc1` [Compound 216], for which the half-maximal inhibitory concentration (IC50) is less than 990 nM at 1b (BK) NS5bΔ21 (setting [6]), 180 nM on 1b (BK) NS5bΔ21 (setting [7]) and 20 nM in test [1] (setting [8]). Moreover, the EC50 is less than 990 nM in test [2] (setting [9]), 40 nM in test [2] (setting [10]), 130 nM in test [3] (Hepatitis C virus) and 680 nM in test [4] (Hepatitis C virus).
On to `CNC(=O)c1c2cc(C3CC3)c(N(CCCSC)S(C)(=O)=O)cc2nn1-c1ccc(Br)cc1` [Compound 99, 2-(4-bromophenyl)-5-cyclopropyl-N-methyl-6-[3-methylsulfanylpropyl(methylsulfonyl)amino]-2H-indazole-3-carboxamide], for which the IC50 at 1b (BK) NS5bΔ21 (setting [6]) is less than 990 nM; at 1b (BK) NS5bΔ21 (setting [7]) it was 90 nM; in test [1] (setting [8]) it was 20 nM. In addition, the half-maximal effective concentration (EC50) in test [2] (setting [9]) is less than 990 nM; in test [2] (setting [10]) it was 70 nM; in test [3] (Hepatitis C virus), 430 nM; in test [4] (Hepatitis C virus), 1080 nM.
Consider `CCN(c1cc2nn(-c3ccc(NCC(C)C)cc3)c(C(=O)NC)c2cc1C1CC1)S(C)(=O)=O` [Compound 117], for which the IC50 is less than 990 nM at 1b (BK) NS5bΔ21 (setting [6]), 430 nM at 1b (BK) NS5bΔ21 (setting [7]) and 70 nM in test [1] (setting [8]). Further, the EC50 in test [2] (setting [9]) is less than 990 nM; in test [2] (setting [10]), 70 nM; in test [3] (Hepatitis C virus) it was 340 nM; in test [4] (Hepatitis C virus) it was 150 nM.
Take `CNC(=O)c1c2cc(C3CC3)c(N(CCCO)S(C)(=O)=O)cc2nn1-c1ccc(Nc2ccc(F)cc2)cc1` [Compound 21]: the IC50 is less than 990 nM on 1b (BK) NS5bΔ21 (setting [6]), 40 nM at 1b (BK) NS5bΔ21 (setting [7]) and 40 nM in test [1] (setting [8]). Moreover, the concentration giving a half-maximal response (EC50) in test [2] (setting [9]) is less than 990 nM; in test [2] (setting [10]) it was 460 nM; in test [3] (Hepatitis C virus), 290 nM; in test [4] (Hepatitis C virus), 340 nM.
`CNC(=O)c1c2cc(C3CC3)c(N(CCCNC(=O)c3cccc(OC)c3F)S(C)(=O)=O)cc2nn1-c1ccc(Br)cc1` [Compound 189]: the IC50 on 1b (BK) NS5bΔ21 (setting [6]) was less than 990 nM; on 1b (BK) NS5bΔ21 (setting [7]), 130 nM; in test [1] (setting [8]), 50 nM. For the same molecule, the EC50 in test [2] (setting [9]) was less than 990 nM; in test [2] (setting [10]), 30 nM; in test [3] (Hepatitis C virus) it was 80 nM; in test [4] (Hepatitis C virus), 230 nM.
As for `CCN(c1cc2nn(-c3ccc(Oc4ccc(F)cc4)nc3)c(C(=O)NC)c2cc1C1CC1)S(C)(=O)=O` [Compound 136], the IC50 at 1b (BK) NS5bΔ21 (setting [6]) was 1000 to 9990 nM; on 1b (BK) NS5bΔ21 (setting [7]) it was 1550 nM; in test [1] (setting [8]), 820 nM. Moreover, the concentration giving a half-maximal response (EC50) was less than 990 nM in test [2] (setting [9]), 270 nM in test [2] (setting [10]), 1530 nM in test [3] (Hepatitis C virus) and 1800 nM in test [4] (Hepatitis C virus).
In the case of `CNC(=O)c1c2cc(C3CC3)c(N(CCC3COC(C)(C)OC3)S(C)(=O)=O)cc2nn1-c1ccc(Cl)cc1` [Compound 235], the figures for the IC50 (on 1b (BK) NS5bΔ21 (setting [6]); on 1b (BK) NS5bΔ21 (setting [7]); in test [1] (setting [8])) were less than 990 nM, 90 nM and 30 nM, respectively. The EC50 in test [2] (setting [9]) is less than 990 nM; in test [2] (setting [10]) it was 40 nM; in test [3] (Hepatitis C virus) it was 280 nM; in test [4] (Hepatitis C virus) it was 140 nM.
With `CNC(=O)c1c2cc(C3CC3)c(N(CCCO)S(C)(=O)=O)cc2nn1-c1ccc(Br)cc1` [Compound 4, 2-(4-bromophenyl)-5-cyclopropyl-6-[(3-hydroxypropyl)(methylsulfonyl)amino]-N-methyl-2H-indazole-3-carboxamide], the half-maximal inhibitory concentration (IC50) was less than 990 nM at 1b (BK) NS5bΔ21 (setting [6]), 170 nM at 1b (BK) NS5bΔ21 (setting [7]) and 10 nM in test [1] (setting [8]). The EC50 in test [2] (setting [9]) is less than 990 nM; in test [2] (setting [10]) it was 90 nM; in test [3] (Hepatitis C virus), 210 nM; in test [4] (Hepatitis C virus), 940 nM.
For the molecule `CCOC(=O)CCN(c1cc2nn(-c3ccc(Br)cc3)c(C(=O)NC)c2cc1C1CC1)S(C)(=O)=O` [Compound 131], the IC50 at 1b (BK) NS5bΔ21 (setting [6]) is less than 990 nM; at 1b (BK) NS5bΔ21 (setting [7]) it was 370 nM; in test [1], 470 nM. The EC50 is less than 990 nM in test [2] (setting [9]), 140 nM in test [2] (setting [10]), 450 nM in test [3] (Hepatitis C virus) and 3790 nM in test [4] (Hepatitis C virus).

(Values after US8546389B2 (priority 2010, dated 2013).)
